Legend:
[1] = system: oilseed rape homozygous for HETO133 and HETO134; assay: Further field trial, phytotoxicity (Table 3); type: in vivo, Brassica napus; conditions: g ai/ha: IMAZAMOX 40, BISPYRIBAC-SODIUM 50, PROPOXYCARBAZONE-SODIUM 70, MESOSULFURON-METHYL 60, PYROXSULAM 12.5 with CLOQUINTOCET-MEXYL 37.5, each with RAPESEED OIL METHYLATED 366.5
Protocol: (§1) In a further field trial, seeds of spring oilseed rape comprising HETO133 and HETO134, and wild type (WT) seeds were sown in a field. For the untreated plants, biomass was determined at 9, 16 and 24 days after application (DAA) as compared to a control variety. For the treated plants, phytotoxicity was assessed at 9, 16 and 24 days after application (DAA) according to a scale from 0 to 100%. For both wild-type and HETO133-HETO134, no thinning was observed.

[2] = system: wild-type (WT) oilseed rape; assay: Further field trial, phytotoxicity (Table 3); type: in vivo, Brassica napus; conditions: g ai/ha: IMAZAMOX 40, BISPYRIBAC-SODIUM 50, PROPOXYCARBAZONE-SODIUM 70, MESOSULFURON-METHYL 60, PYROXSULAM 12.5 with CLOQUINTOCET-MEXYL 37.5, each with RAPESEED OIL METHYLATED 366.5
Protocol: as §1

[3] = system: oilseed rape comprising a P197S mutation on ALS I and a W574L mutation on ALS III (P197S-W574L); assay: Field trial, visible phytotoxicity (Table 2); type: in vivo, Brassica napus; conditions: applied at BBCH 14, 200 L/ha water, g ai/ha: Foramsulfuron 25, TCM 15, Iodosulfuron 7, Mesosulfuron 60, Amidosulfuron 30, Ethoxysulfuron 60, Imazamox 40, Metosulam 30, Bispyribac 50, Nicosulfuron 60, Metsulfuron 8, Propoxycarbazone 70, Pyroxsulam 50, Tribenuron 30, Rimsulfuron 12.5, Flucarbazone 40, Thifensulfuron 7.5
Text: (§2) Seeds of spring oilseed rape homozygous for HETO133 and HETO134 were sown in a field according to typical practical agricultural methods. The registered spring oilseed rape variety ABILITY, the wild-type segregant (WTS), and plants comprising a P197S mutation on ALS I and a W574L mutation on ALS III (P197S-W574L) served as a comparison. All plants were cultivated up to BBCH stage 14 (four true leaves of the oilseed rape plants). Afterwards, the herbicides mentioned in table 2 have been applied to the oilseed rape plants by using specific spray equipment for small plot applications. The water amount used was 200 L/ha.

[4] = system: oilseed rape homozygous for HETO133 and HETO134; assay: Field trial, visible phytotoxicity (Table 2); type: in vivo, Brassica napus; conditions: applied at BBCH 14, 200 L/ha water, g ai/ha: Foramsulfuron 25, TCM 15, Iodosulfuron 7, Mesosulfuron 60, Amidosulfuron 30, Ethoxysulfuron 60, Imazamox 40, Metosulam 30, Bispyribac 50, Nicosulfuron 60, Metsulfuron 8, Propoxycarbazone 70, Pyroxsulam 50, Tribenuron 30, Rimsulfuron 12.5, Flucarbazone 40, Thifensulfuron 7.5
Text: as §2

[5] = system: spring oilseed rape variety ABILITY; assay: Field trial, visible phytotoxicity (Table 2); type: in vivo, Brassica napus; conditions: applied at BBCH 14, 200 L/ha water, g ai/ha: Foramsulfuron 25, TCM 15, Iodosulfuron 7, Mesosulfuron 60, Amidosulfuron 30, Ethoxysulfuron 60, Imazamox 40, Metosulam 30, Bispyribac 50, Nicosulfuron 60, Metsulfuron 8, Propoxycarbazone 70, Pyroxsulam 50, Tribenuron 30, Rimsulfuron 12.5, Flucarbazone 40, Thifensulfuron 7.5
Text: as §2

[6] = system: wild-type segregant (WTS) oilseed rape; assay: Field trial, visible phytotoxicity (Table 2); type: in vivo, Brassica napus; conditions: applied at BBCH 14, 200 L/ha water, g ai/ha: Foramsulfuron 25, TCM 15, Iodosulfuron 7, Mesosulfuron 60, Amidosulfuron 30, Ethoxysulfuron 60, Imazamox 40, Metosulam 30, Bispyribac 50, Nicosulfuron 60, Metsulfuron 8, Propoxycarbazone 70, Pyroxsulam 50, Tribenuron 30, Rimsulfuron 12.5, Flucarbazone 40, Thifensulfuron 7.5
Text: as §2

[7] = system: Hypocotyl derived callus (WT tissues); assay: Callus selection on Foramsulfuron containing medium; type: cell-based, Brassica napus
Protocol: Five day old seedlings were used for the preparation of hypocotyl segments 7-10 mm in length. Hypocotyl segments were transferred to 14 cm Petri plates containing 75 ml of M-338 [H76] callus induction medium (25 explants/plate). M-338 [H76] medium is MS salts and vitamins (Murashige and Skoog, 1962), 20 g/l sucrose, 0.5 g/l MES, 0.5 g/l adenine sulphate, 5 mg/l silver nitrate, 0.5 mg/l 2,4-D, 0.2 mg/l kinetin and solidified with 5.5 g/l agarose (pH 5.7). Dishes were sealed and cultured at 24° C. with standard light conditions (16 h/day). After 3 weeks, calli developing at the ends of the explants were transferred to fresh M-338 [H76] plates (25 calli/plate). Calli were subcultured to fresh medium every 3 weeks (larger calli cut into two pieces).
Hypocotyl derived callus (9 weeks old) was used for the selection of herbicide resistant mutants. Small pieces of callus were plated on M-338 [H76] medium containing 25 nM of the ALS inhibitor Foramsulfuron (CAS RN 173159-57-4). […] Dishes were cultured at 24° C. with standard light conditions (16 h/day). After 3 weeks, the calli were divided into 2 pieces each and replated on M-338 [H76] medium containing 50 nM Foramsulfuron. […]

SMILES | Percentage phytotoxicity HETO133-HETO134 9 DAA [1] [%] | Percentage phytotoxicity HETO133-HETO134 16 DAA [1] [%] | Percentage phytotoxicity HETO133-HETO134 24 DAA [1] [%] | Percentage phytotoxicity WT 9 DAA [2] [%] | Percentage phytotoxicity WT 16 DAA [2] [%] | Percentage phytotoxicity WT 24 DAA [2] [%] | Percentage phytotoxicity P197S-W574L 7 DAA [3] [%] | Percentage phytotoxicity P197S-W574L 14 DAA [3] [%] | Percentage phytotoxicity P197S-W574L 23 DAA [3] [%] | Percentage phytotoxicity HETO133-HETO134 7 DAA [4] [%] | Percentage phytotoxicity HETO133-HETO134 14 DAA [4] [%] | Percentage phytotoxicity HETO133-HETO134 23 DAA [4] [%] | Percentage phytotoxicity ABILITY 7 DAA [5] [%] | Percentage phytotoxicity standard 14 DAA [5] [%] | Percentage phytotoxicity standard 23 DAA [5] [%] | Percentage phytotoxicity WTS 7 DAA [6] [%] | Percentage phytotoxicity WTS 14 DAA [6] [%] | Percentage phytotoxicity WTS 23 DAA [6] [%] | effect on callus growth ([7]; 25 nM Foramsulfuron in M-338 [H76] medium, starting concentration) | effect on WT tissues ([7]; 250 nM Foramsulfuron in M-338 [H76] medium)
COc1cc(OC)nc(Oc2cccc(Oc3nc(OC)cc(OC)n3)c2C(=O)O)n1 [Bispyribac, bispyribac-sodium] | 56.7 | 88.3 | 92.7 | 76.7 | 98.3 | 100 | – | – | – | – | – | – | – | – | – | – | – | – | – | –
COc1nn(C(=O)[N-]S(=O)(=O)c2ccccc2OC(F)(F)F)c(=O)n1C.[Na+] [Flucarbazone, flucarbazone-sodium] | – | – | – | – | – | – | 10 | 6 | 10 | 0 | 0 | 0 | 85 | 98 | 99 | 85 | 98 | 99 | – | –
COc1cc(OC)nc(NC(=O)NS(=O)(=O)c2cc(NC=O)ccc2C(=O)N(C)C)n1 [Foramsulfuron, foramsulfuron] | – | – | – | – | – | – | – | – | – | – | – | – | – | – | – | – | – | – | partially inhibitory to callus growth but not lethal | clearly inhibitory to WT tissues
COCc1cnc(C2=NC(C)(C(C)C)C(=O)N2)c(C(=O)O)c1 (centres unmarked) [Imazamox, imazamox] | 6.7 | 10 | 0 | 73.3 | 98 | 99 | – | – | – | – | – | – | – | – | – | – | – | – | – | –
COC(=O)c1ccc(CNS(C)(=O)=O)cc1S(=O)(=O)NC(=O)Nc1nc(OC)cc(OC)n1 [Mesosulfuron, mesosulfuron-methyl] | 11.7 | 13.3 | 3.3 | 76.7 | 98 | 96 | 40 | 40 | 45 | 33 | 38 | 35 | 85 | 98 | 99 | 85 | 98 | 99 | – | –
COC(=O)c1ccccc1S(=O)(=O)NC(=O)Nc1nc(C)nc(OC)n1 [Metsulfuron, metsulfuron-methyl] | – | – | – | – | – | – | 45 | 50 | 62 | 50 | 63 | 78 | 86 | 98 | 99 | 86 | 98 | 99 | – | –
CCCOc1nn(C(=O)[N-]S(=O)(=O)c2ccccc2C(=O)OC)c(=O)n1C.[Na+] [Propoxycarbazone, propoxycarbazone-sodium] | 53.3 | 82.7 | 76.7 | 76.7 | 97 | 97.7 | 47 | 52 | 47 | 57 | 72 | 83 | 86 | 98 | 99 | 86 | 98 | 99 | – | –
COc1cc(OC)n2nc(NS(=O)(=O)c3c(C(F)(F)F)ccnc3OC)nc2n1 [Pyroxsulam, pyroxsulam] | 13.3 | 17 | 15 | 76.7 | 98 | 98 | 15 | 16 | 18 | 0 | 0 | 5 | 83 | 98 | 99 | 83 | 98 | 99 | – | –
COC(=O)c1csc(C)c1S(=O)(=O)NC(=O)n1nc(OC)n(C)c1=O [TCM, thiencarbazone-methyl] | – | – | – | – | – | – | 16 | 13 | 17 | 0 | 0 | 3 | 85 | 98 | 99 | 85 | 98 | 99 | – | –

From US20160160232A1, “ALS INHIBITOR HERBICIDE TOLERANT MUTANT PLANTS” (priority 2013, published 2016)
